# Experimental data reported in patent US5241065A, “2,3,4,5-tetrahydro-1H-3-benzazepines having anti-psychotic activity” (Schering Corporation, priority 1992, dated 1993).
# Read-outs that look alike come from different tables or passages of the source.
# Experiments:
# rats = test: Conditioned avoidance response (CAR) suppression in rats; assay type: in vivo; settings: Rattus norvegicus, read-out: Rat CAR, minimal effective dose (MED)
# Procedure: N.Y. Acad. Sci. 66, 740 (1957)]. A series of experiments was carried out to assess the ability of the compounds of this invention to suppress the conditioned avoidance response (CAR) in rats.
# Rats were required to jump onto a platform located 6.75 inches (17.15 cm) above the grid floor of an experimental chamber in response to a 5-second tone to avoid a 10-second foot shock (0.6 ma). Each experimental session consisted of 20 such trials presented at 30-second intervals. A correct CAR is scored whenever the rat jumps onto the platform during the tone (prior to foot shock). An escape response is scored when the rat jumps onto the platform during a shock. A response failure is defined as the lack of an escape response during the 10-second shock period.
# Groups of 6-8 rats were trained in two consecutive days (total of 40 trials). Rats that reached criterion on day 2 (correct CARs in 16 or more of the 20 trials) were treated with either a test drug or a vehicle on day 3. Suppression of CAR was analyzed statistically using Student's t-test comparing the performances of drug-treated to vehicle-treated rats.
# squirrel monkeys = test: Suppression of conditioned avoidance response (CAR) in squirrel monkeys; assay type: in vivo; settings: Saimiri, in Primates, po, read-out: Monkey CAR, minimal effective dose (MED)
# Excerpt: This test is designed to measure the effective duration of candidate compounds.
# Male or female squirrel monkeys weighing 800-1200 g housed one per cage are utilized. Initially each monkey is taught to terminate both a 3mA electric shock delivered through the grid floor of the test cage and an overlapping tone by depressing a lever in the cage.
# In the second phase of the testing, a ten second tone is turned on prior to the shock component. A lever pass during the sounding of the tone terminates the tone and prevents the occurrence of the shock component and is denoted as an "avoidance".
# The compound testing is commenced after three consecutive days of re-testing. […] The monkey must achieve at lest an 85% correct avoidance before drug testing commences. If this minimal avoidance level is achieved, the next day the monkey is orally dosed or injected with the subject compounds in the appropriate vehicle, and the number of avoidances are recorded. An animal is defined as having been "affected" by any drug treatment if there is a 50% loss of avoidance behavior relative to the performance of the animal when only the vehicle is injected. The minimal effective dose (MED) is defined as that dose producing an effect in at least 50% of the animals.
# A test may be conducted to determine the effective duration of a compound in accordance with the present invention by comparing a compound of the invention to the known compound SCH 23390. A compound of the invention administered 60 minutes prior to the test is compared to SCH 23390 administered 30 minutes prior to test. The duration of each compound is determined by administering a 12.0 mg/kg p.o. dose six hours prior to testing.
# dopamine D-1 receptor = molecular target: T1, dopamine D-1 receptor (Rattus norvegicus, UniProt P18901); test: Competitive inhibition assay, 3H-SCH 23390 binding to rat striatal tissue (dopamine D-1); parameters: species or system Male Sprague-Dawley rats; settings: rat striatal homogenate, 0.3 nM 3H-SCH 23390, pH 7.4, 37° C., 15 minutes, read-out: Ki against 3H-SCH 23390
# T1 construct: Striatal tissue was excised, pooled, and homogenized; from tissue; host or cells: rat striatum (Sprague-Dawley), washed membrane homogenate
# T1 sequence (P18901 whole entry): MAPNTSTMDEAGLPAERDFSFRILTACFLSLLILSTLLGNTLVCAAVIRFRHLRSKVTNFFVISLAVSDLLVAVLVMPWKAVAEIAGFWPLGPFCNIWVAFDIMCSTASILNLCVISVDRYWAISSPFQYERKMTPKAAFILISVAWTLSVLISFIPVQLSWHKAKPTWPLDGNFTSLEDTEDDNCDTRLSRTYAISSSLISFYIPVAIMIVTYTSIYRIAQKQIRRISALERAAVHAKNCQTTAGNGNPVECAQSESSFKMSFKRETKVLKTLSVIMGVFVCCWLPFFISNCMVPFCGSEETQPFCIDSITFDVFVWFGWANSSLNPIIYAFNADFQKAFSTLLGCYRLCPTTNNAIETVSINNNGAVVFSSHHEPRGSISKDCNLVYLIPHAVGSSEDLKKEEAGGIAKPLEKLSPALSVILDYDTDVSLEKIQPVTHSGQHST
# Excerpt: (§1) Many compounds capable of effecting reproducible physiological changes in neural tissues are believed to operate by binding at one or more receptor sites.
# (§2) A methodology for characterization of binding and an interpretation of the data are described by Billard et al., Life Sciences 35, 1885 (1984) in which the binding of (R)-(+)-7-chloro-8-hydroxy-3-methyl-1-phenyl-2,3,4,5-tetrahydro-1H-3-benzazepine (SCH 23390) (as its hemi-maleate) to the dopamine D-1 receptor is characterized.
# (§3) Tritiated SCH 23390 and tritiated spiperone (a potent D-2 ligand) were obtained as described in the Billard et al. reference supra and serially diluted in 0.05 M Tris buffer, pH 7.4, as required. A compound of the invention was diluted in 0.05 M Tris buffer, pH 7.4, as required.
# (§4) Male Sprague-Dawley rats (200 to 250 g) from Charles River Breeding Laboratories, Mass., were used to obtain brain tissue. The rats were humanely sacrificed and their brains removed and placed on ice. Striatal tissue was excised, pooled, and homogenized (Brinkman Polytron, 10 sec) in 100 volumes (w/v) of ice cold 50 mM Tris buffer, pH 7.4 (at 25° C.). The homogenate was centrifuged at 20,000 x g for 10 min. The resulting pellet was re-homogenized in Tris buffer and centrifuged again. The final pellet was resuspended in 50 mM Tris buffer, pH 7.4 containing 120 mM NaCl, 5 mM KCl, 2 mM CaCl2, and 1 mM MgCl2.
# (§5) Polypropylene incubation tubes received 100 μl of the individual test compounds at various concentrations dissolved or suspended in 0.05 M Tris buffer, pH 7.4 containing 4 mg/ml methylcellulose, 100 μl of a solution of ^3 H-SCH 23390 in Tris buffer (final reaction mixture concentration=0.3nM) or 100 μl of a solution of ^3 H-spiperone in Tris buffer (final concentration=0.2 nM) and 800 μl of tissue suspension (ca. 3 mg/assay). Tubes were incubated at 37° C. for 15 minutes and rapidly vacuum filtered through Whatman GF/B filters and rinsed 4 times with 4 ml of ice cold 50 mM Tris buffer, pH 7.4. The filters were transferred to scintillation vials, equilibrated with 10 ml of scintillant (Scintosol, Isolab, Inc.) for 16 hours at 25° C., and the radioactivity was determined in a liquid scintillation counter. Ki values were determined as described by Billard et al. using the relationship: K i =IC50 /(1+([…])) wherein IC50 =concentration of test drug necessary to displace 50% of specifically bound ^3 H-SCH 23390, [L]=concentration of radioligand used in the assay, and KD =dissociation constant.
# D-2 receptor = molecular target: T2, D-2 receptor (Rattus norvegicus, UniProt P61169); test: Competitive inhibition assay, 3H-spiperone binding to rat striatal tissue (D-2); parameters: species or system Male Sprague-Dawley rats; settings: rat striatal homogenate, 0.2 nM 3H-spiperone, pH 7.4, 37° C., 15 minutes, read-out: Ki against 3H-spiperone
# T2 construct: Striatal tissue was excised, pooled, and homogenized; from tissue; host or cells: rat striatum (Sprague-Dawley), washed membrane homogenate
# T2 sequence (P61169 whole entry): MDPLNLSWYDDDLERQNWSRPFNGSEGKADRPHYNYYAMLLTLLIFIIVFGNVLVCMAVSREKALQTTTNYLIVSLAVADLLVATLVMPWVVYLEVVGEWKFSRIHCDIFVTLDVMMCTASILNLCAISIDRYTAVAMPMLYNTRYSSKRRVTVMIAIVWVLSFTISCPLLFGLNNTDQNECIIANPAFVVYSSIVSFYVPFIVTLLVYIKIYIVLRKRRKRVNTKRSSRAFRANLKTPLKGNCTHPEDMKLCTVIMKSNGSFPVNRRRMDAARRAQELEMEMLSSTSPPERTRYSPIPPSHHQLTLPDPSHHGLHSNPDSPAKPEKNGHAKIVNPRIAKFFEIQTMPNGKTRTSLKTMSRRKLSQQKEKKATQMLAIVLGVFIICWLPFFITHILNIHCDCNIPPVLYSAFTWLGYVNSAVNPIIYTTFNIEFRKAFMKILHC
# Excerpt: as §1, §2, §3, §4, §5
# rat = test: Toxicity, rat; assay type: in vivo; settings: for Toxicity, rat: result in words, dose in mpk within the value
# Excerpt: The compounds of this invention are substantially non-toxic at the therapeutic close, as is shown in the following Table 4, which compares them with related reference compounds: […]
Ki (dopamine D-1 receptor) [nM],Ki (D-2 receptor) [nM],SMILES,minimal effective dose (rats; po (per oral)) [mg/kg],"Toxicity, rat (rat)",other results
2.2,1440,"CN1CCc2cc(Cl)c(O)cc2C(C2=CCCCC2)C1 (racemic) [K, (R,S)-7-chloro-1-(1-cyclohexenyl)-8-hydroxy-3-methyl-2,3,4,5-tetrahydro-1H-3-benzazepine]",,,
0.83,420,"CC1=C(C2CN(C)CCc3cc(Cl)c(O)cc32)CCCC1 (racemic) [N, (R,S)-7-chloro-8-hydroxy-3-methyl-1-(2-methyl-1-cyclohexenyl)-2,3,4,5-tetrahydro-1H-3-benzazepine]",30,,
2.3,595,"CN1CCc2cc(Cl)c(O)cc2C(C2=CCCC2)C1 (racemic) [Q, (R,S)-7-chloro-1-(1-cyclopentenyl)-8-hydroxy-3-methyl-2,3,4,5-tetrahydro-1H-3-benzazepine]",,,
101,4370,"Cc1cc2c(cc1O)[C@H](C1=CCCCC1)CN(C)CC2 [B, (S)-1-(1-cyclohexenyl)-8-hydroxy-3,7-dimethyl-2,3,4,5-tetrahydro-1H-3-benzazepine, reference compound]",> 30,,
4,1670,"Cc1cc2c(cc1O)[C@@H](C1=CCCCC1)CN(C)CC2 [C, (R)-1-(1-cyclohexenyl)-8-hydroxy-3,7-dimethyl-2,3,4,5-tetrahydro-1H-3-benzazepine, reference compound]",,,minimal effective dose (rats; sc (subcutaneous)): 0.1 mg/kg
,,"CN1CCc2cc(Cl)c(O)cc2C(C2CCCC2)C1 (stereo not drawn) [D, reference compound]",> 30,,minimal effective dose (rats; sc (subcutaneous)): 3 mg/kg
15,3690,"CC1=C([C@@H]2CN(C)CCc3cc(Cl)c(O)cc32)CCC1 [J, (S)-7-chloro-8-hydroxy-3-methyl-1-(2-methyl-1-cyclopentenyl)-2,3,4,5-tetrahydro-1H-3-benzazepine]",> 30,,
23,2080,"CN1CCc2cc(Cl)c(O)cc2[C@H](C2=CCCCC2)C1 [L, (S)-7-chloro-1-(1-cyclohexenyl)-8-hydroxy-3-methyl-2,3,4,5-tetrahydro-1H-3-benzazepine]",> 30,,
2.8,554,CC(C)=C(C)C1CN(C)CCc2cc(Cl)c(O)cc21 (stereo not drawn) [P],10,,

SMILES,Ki (dopamine D-1 receptor) [nM],Ki (D-2 receptor) [nM],minimal effective dose (rats; po (per oral)) [mg/kg],"Toxicity, rat (rat)",other results
"Cc1cc2c(cc1O)C(C1=CCCCC1)CN(C)CC2 (racemic) [A, (R,S)-1-(1-cyclohexenyl)-8-hydroxy-3,7-dimethyl-2,3,4,5-tetrahydro-1H-3-benzazepine, reference compound]",8.7,1880,> 30,,"minimal effective dose (squirrel monkeys): 3 mg/kg; minimal effective dose (squirrel monkeys; at 1 hour): 10 mg/kg; Toxicity, rat: salivation (rat; 10 mpk po, after 1 hour): salivation in 1 of 3 rats"
"CC1=C(C2CN(C)CCc3cc(Cl)c(O)cc32)CCC1 (racemic) [G, (R,S)-7-chloro-8-hydroxy-3-methyl-(2-methyl-1-cyclopentenyl)-2,3,4,5-tetrahydro-1H-3-benzazepine]",0.27,656,10,Non-toxic at 300 mpk,"minimal effective dose (rats; po, at 6 hours): 50 mg/kg; minimal effective dose (rats; sc (subcutaneous)): 0.01 mg/kg; minimal effective dose (squirrel monkeys): 5 mg/kg; minimal effective dose (squirrel monkeys; at 6 hours): 20 mg/kg"
"Cc1cc2c(cc1O)C(C1CCCCC1)CN(C)CC2 (stereo not drawn) [E, reference compound]",48,3610,10,Lethal at 300 mpk,minimal effective dose (rats; sc (subcutaneous)): 3 mg/kg
"Cc1cc2c(cc1O)C(C1CCCC1)CN(C)CC2 (stereo not drawn) [F, reference compound]",44,1050,,Lethal at 300 mpk,
"CC1=C([C@H]2CN(C)CCc3cc(Cl)c(O)cc32)CCC1 [H, (R)-7-chloro-8-hydroxy-3-methyl-1-(2-methyl-1-cyclopentenyl)-2,3,4,5-tetrahydro-1H-3-benzazepine]",0.43,358,5,Non-toxic at 150 mpk,"minimal effective dose (rats; po, at 6 hours): 25 mg/kg; minimal effective dose (squirrel monkeys): 2 mg/kg; minimal effective dose (squirrel monkeys; at 4 hours): 10 mg/kg"
"CN1CCc2cc(Cl)c(O)cc2[C@@H](C2=CCCCC2)C1 [M, (R)-7-chloro-1-(1-cyclohexenyl)-8-hydroxy-3-methyl-2,3,4,5-tetrahydro-1H-3-benzazepine]",0.87,1090,10,Secretions at 300 mpk,
